Data taken from US20090036380A1, “Composition And Method For Brain Tumor Therapy” (Yeda Research and Development Co., Ltd., priority 2006, published 2009).

Tests used:
PC12 cells [1] = test: Viability / death of PC12 cells after transfection with Karet constructs (Live/dead kit, FACS, cell counting, Hoechst); assay type: cell-based, rat
Procedure: FIG. 5a is a bar-graph of FACS data depicting 50 percent death of PC12 cells overexpressing Karet. Shown is a FACS analysis of PC12 viability 15 hours after transfection with Ha-Karet or control vector using Live/dead kit (Molecular probes), T-test=0.003.
FIG. 5b is a series of fluorescence photomicrographs depicting death of PC12 cells caused by Karet overexpression. Shown is a live/dead kit analysis of PC12 cells overexpressing Ha-Karet (left panels) versus control vector-transfected cells (right panels). Live cell are stained in green, dead cells are stained in red. Upper panels each show red fluorescence only (left picture) and green fluorescence only (right picture) pairs, and lower panels each show combined red and green fluorescence (left picture) and light microscopy images (right picture) pairs.
FIG. 5d is a pair of Hoechst stain histology photomicrographs depicting condensation of chromatin indicating apoptosis in PC12 cells expressing Karet, but not in control cells transfected with vector only.
FIG. 5e is a histogram depicting that Karet expression induces cell death of TrkA expressing cells, which is increased by NGF treatment and is decreased by necdin. PC12 or PC12 necdin stable cell line were electroporated with Karet or GFP control and incubated with or without 50 ng/ml NGF for 12 hours. Cells were counted and result presented as percent of control.
PC12 cells were transfected with Ha Karet, PTB, non PTB and their combinations. Cells were analyzed by FACS 18 hours after transfection using the dead/live kit. N=3; * p<0.05; **p<0.001;
The lower panel is a histogram depicting that Karet-mediated cell death correlates well with expression levels of the Karet protein. PC12 Tet-on cells were electroporated with Ha-Karet cloned under inducible promoter and incubated for 24 hours with different concentrations of doxycycline. Cells transfected with Karet but not treated with doxycycline served as control. Cells were counted and the results were determined as percent of control. The upper panel is a control Western blot depicting increased Karet expression with increased concentrations of doxycycline. Cells transfected with Karet and treated with doxycycline were lysed in NP-40 buffer and subjected to SDS-PAGE analysis. Similar amount of protein was loaded and blotted for Karet expression with Ha antibody. Proteins levels were checked with anti-tubulin antibody.
FIG. 18a—PC12 were transfected with Ha Karet, Karet F217V, PTB F217V or a control vector (pcDNA3) and 18 hours after transfection the effect of Karet or Karet mutants on cell death was determined using the dead/live kit and FACS analysis. Results are presented in percentages as compared to cells transfected with the control vector. N=3 **P<0.001. […] FIG. 18b—Cells were lysed 24 hours after transfection, fractionated on SDS-PAGE and immunoblot for anti Ha (Covance).
FIG. 19 is a histogram depicting FACS analysis of Karet-induced death. PC12 cells were co-transfected with Karet and the PTB, non-PTB or the F217V mutant at different ratios (1:1, 1:2, 1:3) and 18 hours after transfection the cells were analyzed by FACS using the dead/live kit.
Viability of cells was evaluated using the Live/dead viability/cytotoxicity kit (Cat. No. L-3224), Molecular Probes, Inc., Eugene, Oreg., USA, according to manufacturer's instructions.

TrkA [2] = test: Co-immunoprecipitation of HA-Karet constructs with TrkA; assay type: binding; conditions: co-transfected Hek or NNR5 cells, anti-HA IP
Procedure: (§1) FIG. 3c is a co-immunoprecipitation assay depicting co-immunoprecipitation of HA-Karet with TrkA in COS cells. Karet tagged with the HA epitope was immunoprecipitated with anti-HA antibody and the blot was incubated with anti-TrkA (RTA). In control experiments the HA-Karet was substituted with vector.
(§2) FIG. 3d is a co-immunoprecipitation assay depicting interaction of Karet and TrkA in NNR5 cells transfected with TrkA.
(§3) FIG. 3e is a co-immunoprecipitation assay depicting co-immunoprecipitation of HA-Karet with TricA in co-transfected NNR5 cells immunoprecipitated with anti-HA (Roche) and Western blot with the anti-TrkA antibody C14 (Santa Cruz).
(§4) FIGS. 4a-c are co-immunoprecipitation assay results depicting the influence of NGF treatment on TrkA-Karet interaction. FIG. 4a depicts that TrkA-Karet interaction occurred prior to NGF treatment and was enhanced after ligand stimulation for 10 minutes (10 m) or 2 hours (2 h). HA-Karet was electroporated into cell line PC12, and the cells were treated with 50 ng/ml NGF for the indicated time periods in order to activate p75 and TrkA. Karet tagged with the HA epitope was immunoprecipitated with anti-HA antibody, the precipitated proteins were separated electrophoretically, and gel blots were incubated with anti-TrkA antibody (RTA). FIG. 4b depicts that necdin seems to compete with TrkA for binding to Karet. myc-Karet was electroporated into necdin stable cell line, and the cells were treated with 50 ng/ml NGF for the indicated time periods. Karet tagged with the myc epitope was immunoprecipitated with anti-myc antibody, the precipitated proteins were separated electrophoretically, and gel blots were incubated with anti-TrkA antibody (RTA). […] A blot from the same experiment was stripped and re-incubated with anti-necdin antibody. The arrow indicates the glycosylated form of TrkA (molecular weight of 140 kDa).
(§5) FIG. 7b is an immunoprecipitation assay depicting that the PTB domain-containing Karet(1-228) mutant, but not Karet(228-453) co-immunoprecipitates with TrkA in NNR5 cells. Truncation mutants tagged with the HA epitope were immunoprecipitated with anti-HA antibody, the precipitated proteins were separated electrophoretically, and gel blots were incubated with anti-TrkA (RTA).
(§6) FIGS. 24a-d depict co IP of Ha Karet with TrkA, TrkB, TrkC, p75 from co-transfected Hek cells. Cells were co-transfected with Ha Karet or control vector and TrkA, TrkB, TrkC or p75. Cells were lysed with NP40, the HA-beads (beads conjugated to anti-HA antibody) were blocked with Hek lysate, and elution was done for 30 minutes at 37° C. […]

PC12 cells [3] = test: Effect of pathway proteins and inhibitors on Karet-induced cell death in PC12 cells; assay type: cell-based, rat
TrkA [4] = target: T1, TrkA (Rattus norvegicus, UniProt P35739); test: Co-immunoprecipitation of HA-Karet constructs with TrkA; assay type: binding; conditions: PC12 cells transfected with Karet; 50 ng/ml NGF, 10 minutes and 2 hours
T1 construct: expressed in transfected cells
T1 sequence (P35739 33-799): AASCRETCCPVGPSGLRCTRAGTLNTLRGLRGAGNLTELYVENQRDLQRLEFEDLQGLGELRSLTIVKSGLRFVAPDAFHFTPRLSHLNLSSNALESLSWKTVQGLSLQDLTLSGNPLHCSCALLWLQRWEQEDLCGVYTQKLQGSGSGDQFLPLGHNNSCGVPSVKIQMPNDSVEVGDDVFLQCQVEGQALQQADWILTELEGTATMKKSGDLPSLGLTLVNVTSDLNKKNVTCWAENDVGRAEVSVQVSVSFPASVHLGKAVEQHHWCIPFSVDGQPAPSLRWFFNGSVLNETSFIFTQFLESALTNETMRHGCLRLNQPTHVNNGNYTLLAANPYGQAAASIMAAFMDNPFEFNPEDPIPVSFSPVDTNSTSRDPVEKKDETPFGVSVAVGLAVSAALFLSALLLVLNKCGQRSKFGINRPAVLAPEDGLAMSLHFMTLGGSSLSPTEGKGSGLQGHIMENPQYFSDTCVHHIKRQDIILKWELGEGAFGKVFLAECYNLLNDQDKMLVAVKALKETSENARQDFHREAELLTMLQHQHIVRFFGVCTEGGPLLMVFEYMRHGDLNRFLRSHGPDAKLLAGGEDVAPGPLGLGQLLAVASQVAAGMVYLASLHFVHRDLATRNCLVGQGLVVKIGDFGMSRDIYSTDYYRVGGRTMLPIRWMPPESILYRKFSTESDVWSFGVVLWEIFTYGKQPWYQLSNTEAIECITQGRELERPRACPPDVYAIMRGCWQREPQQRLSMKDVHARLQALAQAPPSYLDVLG
Procedure: as §1, §2, §3, §4, §5, §6

[5] = test system: human medulloblastoma cells (MED 283) stably transfected to express TrkA; conditions: cited from earlier work

In the case of “Karet(228-453): C-terminal truncation mutant of mouse Karet, amino acid residues 228-453 (SEQ ID NO:8)”, the “effect on Karet-induced death in competition assay” value (PC12 cells [1]; PC12 co-transfected with Karet at ratios 1:1, 1:2, 1:3, FACS 18 hours after transfection) is reported as “reduced Karet-induced death” and the “co-immunoprecipitation / interaction with TrkA” value (TrkA [2]) is reported as “does not”.
With `C[S+]([O-])c1ccc(-c2nc(-c3ccncc3)c(-c3ccc(F)cc3)[nH]2)cc1` (centres unmarked) [SB203580, reference compound] the “effect on cell death induction by Karet” value (PC12 cells [3]; PC12 electroporated with Karet, 10 micromolar SB203580) was “did not affect cell death induction”.
For “NGF: nerve growth factor, neurotrophin ligand of TrkA”, the “additional increase of death by NGF treatment” value (PC12 cells [1]; PC12 cells overexpressing Karet, 50 ng/ml NGF, 12 hours) is given as 30%, the “effect of NGF on TrkA-Karet interaction” value (TrkA [4]) is given as “enhanced” and the “cell death on NGF treatment” value ([5]; MED 283 cells expressing TrkA) is given as “significant levels of cell death”.
In the case of `COC(=O)[C@@]1(O)C[C@H]2O[C@]1(C)n1c3ccccc3c3c4c(c5c6ccccc6n2c5c31)C(=O)NC4` [K252a, reference compound], the “effect on cell death effect of Karet” value (PC12 cells [3]; PC12 cells expressing Karet, 12 hours, different concentrations of K252A) is listed as “diminished the cell death effect of Karet” and the “effect on NGF-induced apoptosis” value ([5]; TrkA-medulloblastoma cells) is listed as “inhibited”.
